Columns and labels:
[1] = test system: FMRP; test: FMRP knockdown: Western blot of FMRP after transfection with FMRP antisense or sense oligonucleotide; assay type: cell-based, human; details: 48 hours, AS 0.5-100 nM, S 100 nM
Experimental: Total proteins were extracted from mouse colonic tissues, and lysed on ice in buffer containing 10 mM HEPES [pH 7.9], 10 mM KCl, 0.1 mM EthyleneDiamineTetraacetic Acid (EDTA), 0.2 mM Ethylene Glycol-bis (β-aminoethyl ether)-N,N,N′,N′-Tetraacetic Acid (EGTA) and 0.5% Nonidet P40 supplemented with 1 mM dithiothreitol (DTT), […], […], 1 mM phenylmethylsulfonyl fluoride (PMSF), 1 mM Na3VO4, and 1 mM NaF. Lysates were clarified by centrifugation and separated on sodium dodecyl sulphate (SDS)-polyacrylamide gel electrophoresis. Blots were incubated with antibodies against: FMRP (Cell Signaling, Danvers, Mass.), followed by a secondary antibody conjugated to horseradish peroxidase (Dako, Milan, Italy). After analysis, each blot was stripped and incubated with a mouse-anti-human monoclonal β-actin antibody (Sigma-Aldrich) to ascertain equivalent loading of the lanes.
Human CRC cell lines, DLD-1 and HCT-116, were obtained from the American Type Culture Collection (ATCC, Manassas, Va.) and cultured in RPMI 1640 (DLD-1) and McCoy's 5A (HCT-116) medium, respectively. All media were supplemented with 10% fetal bovine serum, 1% penicillin/streptomycin (both from Lonza, Verviers, Belgium). The normal human colon epithelial cell line (HCEC-1ct) was obtained from EVERCYTE GmbH (Vienna, Austria) and cultured in ColoUp® medium (EVERCYTE GmbH). Cells were maintained in a 37° C., 5% CO2, fully humidified incubator. Cell line lysates were prepared and analyzed by SDS-polyacrylamide gel electrophoresis/immunoblot using methods as previously described in Example 2. For immunofluorescent staining, cell lines were fixed with 3.7% formaldehyde for 10 minutes at 4° C., permeabilized with 0.1% Triton for 10 minutes at room temperature and blocked (1% bovine serum albumin, Tween 0.1%, glycine 2%) for 1 hour at room temperature. Fixed and blocked cells were incubated with anti-FMRP monoclonal antibody (1:500, Cell Signaling, Danvers, Mass.) overnight at 4° C. After washing with PBS, secondary antibody goat anti-rabbit Alexa 488 (1:2000, A11008; Invitrogen) was applied for 1 hour at room temperature. Slides were washed with PBS, mounted using Prolong Gold® anti-fade reagent with 4′,6-diamidino-2-phenylindole (P36931; Invitrogen) and analyzed by a Leica DMI4000 B microscope with Leica application suite software (V4.6.2).
Phosphorothioate single-stranded antisense oligonucleotides complementary to human FMRP [5′-[…]-3′ (SEQ ID NO: 6)] and single-stranded sense oligonucleotides [5′-[…]-3′ (SEQ ID NO: 15)] were synthesized. CRC cell lines and HCEC-1ct cells were transfected with either FMRP antisense (AS)(final concentration 0.5-100 nM) or FMRP sense oligonucleotide (S) (final concentration100 nM) for 24 and 48 hours, using Opti-MEM medium and lipofectamine 3000 reagent (Thermo Fisher Scientific, Waltham, Mass., USA) according to the manufacturer's instructions.

[2] = test system: FMRP; test: Western blot of FMRP after CREB antisense transfection; assay type: cell-based; details: human CRC cell lines, CREB antisense 200 nM, 24 or 48 hours, FIGS. 7D, 7F
Experimental: (§1) To asses if CREB regulates FMRP expression, CRC cell lines were transfected with either CREB antisense (ASc) (5′-[…]-3′) (SEQ ID NO: 16) or CREB sense (Ss) (5′-[…]-3′)(SEQ ID NO: 17)(final concentration 200 nM) for 24 or 48 hours. mRNA and total protein lysates were prepared and analyzed by RT-PCR and Western blot, respectively, as previously described in Examples 1 to 3.

[3] = test system: CREB; test: Western blot of CREB after CREB antisense transfection; assay type: cell-based; details: human CRC cell lines, 200 nM, 24 or 48 hours, vs untreated or sense control, FIGS. 7D, 7E
Experimental: as §1

[4] = test system: CRC cells; test: Antisense-induced cell death after pan-caspase inhibitor pre-treatment (PI/AnnV flow cytometry); assay type: cell-based, human; details: Q-VD-OPh 1 μM pre-treatment, FIG. 4C
Experimental: (§2) Immunotools, Friesoythe, Germany) according to the manufacturer's instructions, and incubated with […] of propidium iodide (PI) for 30 min at 4° C. Cells were also transfected with either FMRP sense oligonucleotide or FMRP AS oligonucleotide (final concentration 100 nM) for 36 hours and analyzed for activated caspase 3 and caspase 8. […] Additionally, 36 hours (FIGS. 4F and 4G) or 48 hours post-transfection (FIGS. 4D and 4E), cells were pulsed with […] bromodeoxyuridine for 60 minutes, fixed in 70% cold ethanol, and stored at −20° C. for at least 3 hours. […] Fluorescence was measured using Gallios Flow Cytometer (Beckman Coulter, Life Sciences, Pasadena, Calif., USA) and analyzed using Kaluza software (Beckman Coulter). Viable cells were considered as AV^−/PI^− cells.

[5] = test system: human CRC cell lines; test: Antisense-induced cell death with RIPK1 or MLKL inhibitor (PI/AnnV flow cytometry); assay type: cell-based; details: NEC1 10 μM, NSA 1 μM, 24 hours, FIGS. 6E, 6F
Experimental: To confirm the association of FMRP with components of the necroptosis pathway, cells were left untreated or transfected with either FMRP antisense oligonucleotide (final concentration 0.5 nM and 100 nM) or FMRP sense oligonucleotide (final concentration 100 nM); incubated with a pMLKL inhibitor (necrosulfonamide, NSA; final concentration 1 μM)(Calbiochem); or a pRIPK1 inhibitor (necrostatinl, NEC1; final concentration 10 μM)(Cayman Chemical, Ann Arbor, Mich. USA). After 24 hours cells were collected and analyzed by Western blot, or stained with FITC-Annexin V and PI for flow cytometry analysis, as previously described in Examples 1-3.

[6] = test system: caspase 3; test: Activated caspase 3 by flow cytometry in CRC cells; assay type: cell-based, human; details: oligonucleotide 100 nM 36 hours, staurosporin 1 μM, FIGS. 4A, 4B
Experimental: as §2

What does the source list for “5′-ATGGAGGAGCTGGTGGTGGA-3′ (DNA, backbone and methylation of C not given here; further chemistry not fully specified) [sense oligonucleotide, single-stranded sense oligonucleotides, control, reference compound]”?
FMRP expression ([1]; DLD-1 cells, FIG. 3D): no significant inhibition; FMRP expression ([1]; HCEC-1ct cells, FIG. 3I): no significant inhibition; FMRP expression ([1]; HCT-116 cells, FIG. 3G): no significant inhibition

Which FMRP protein expression [2] does the source give for “5′-GCATCTCCACTCTGCTGGTT-3′ (listed as DNA, chemistry not given here) [CREB antisense oligonucleotide, CREB antisense (ASc)]” here?
Its FMRP protein expression is “concomitant reduction in FMRP protein expression”.

And the CREB protein expression [3]?
The CREB protein expression was “reduced expression of CREB protein”.

For `CC(C)[C@H](NC(=O)c1ccc2ccccc2n1)C(=O)N[C@@H](CC(=O)O)C(=O)COc1c(F)cccc1F` [Q-VD-OPh], which “effect of pre-treatment on FMRP antisense oligonucleotide-induced cell death” value [4] is on record?
The value was “did not alter FMRP antisense oligonucleotide-induced cell death”.

How did the “effect on FMRP antisense oligonucleotide-induced cell death” value [5] turn out when `CN1C(=O)C(Cc2c[nH]c3ccccc23)NC1=S` (stereo not drawn) [necrostatin 1] was run?
The value was “protected from FMRP antisense oligonucleotide-induced cell death”.

How did the “effect on FMRP antisense oligonucleotide-induced cell death” value [5] turn out when `COc1nccnc1NS(=O)(=O)c1ccc(NC(=O)/C=C/c2ccc([N+](=O)[O-])s2)cc1` [necrosulfonamide] was run?
Its value is “protected from FMRP antisense oligonucleotide-induced cell death”.

For `CN[C@@H]1C[C@H]2O[C@@](C)([C@@H]1OC)n1c3ccccc3c3c4c(c5c6ccccc6n2c5c31)C(=O)NC4` [staurosporin, reference compound], which “percentage of activated caspase 3-positive cells” value [6] is on record?
The value was “significantly increased”.
